# Laboratory results: patent US11225479B2, “Bicyclic inhibitors of histone deacetylase” (Alkermes, Inc., priority 2017, dated 2022)
# Values joined by “and” are separate entries in the source; they are usually repeats but may differ in a detail not shown here. Identical values can stand only once.
# Assays:
# [1] = Brain and plasma exposure following IV and PO administration to mice; format: in vivo; details: for Brain Cmax @ 10 mpk / Projected free brain @ 10 mpk: 10 mg/kg PO; for brain Cmax exposure, fold higher than comparator 1 / projected free brain concentration, fold higher than comparator 1: comparator 1 data scaled for comparison
# Description: Compounds were dosed in mice at either 10 mg/kg or 30 mg/kg PO, and were dosed at 1 mg/kg IV. Three animals for collection at each time point for plasma via bleeding at 0.25, 0.5, 1, 4, 12 and 24 h. Terminal bleeding for plasma and sampling for brain at 0.25, 0.5, 1, 4, 12 and 24 h (also three animals per brain exposure time point group). Total of six time points for plasma and six time points for brain.
# Plasma: The animal was restrained manually at the designated time points, approximately 150 μL blood/time point was collected into K2EDTA tube via retro orbital puncture or cardiac puncture under anesthesia with Isoflurane. The blood sample was centrifuged (2000 g, 4° C., 5 min) to generate plasma within 30 min after bleeding.
# Brain: At the designated time points, a mid-line incision was made in the animals scalp and the skin was retracted. Using small bone cutters and rongeurs, removed the skull overlying the brain. Removed the brain using a spatula and rinse with cold saline. Placed the brain in screw-top tubes, and then stored the tubes under −70° C. until analysis.
# [2] = tested on: human myeloid progenitors (CFU-GM); assay: Myeloid CFU assay; format: cell-based; details: 336 h, 14 days culture, human bone marrow cells, read-out: Myeloid % control @ 10 uM dose
# Description: (§1) Compounds were tested to evaluate the potential effects on human erythroid and myeloid progenitors using colony forming cell assays. Clonogenic progenitors of human erythroid (CFU-E, BFU-E), granulocyte-monocyte (CFU-GM) and multipotential (CFU-GEMM) lineages were assessed in a semi-solid methylcellulose-based media formulation containing rhIL-3 (10 ng/mL), rhGM-SCF (10 ng/mL), rhSCF (50 ng/mL) and Epo (3 U/mL).
# (§2) Normal human bone marrow light density cells derived from normal bone marrow (NorCal Biologics, California), were stored in the gaseous phase of liquid nitrogen (−152° C.) until required for the assay. On the day of the experiment, the cells were thawed rapidly, the contents of each vial was diluted in 10 mL of Iscove's modified Dulbecco's medium containing 10% fetal bovine serum (IMDM+10% FBS) and washed by centrifugation (approximately 1200 r.p.m. for 10 minutes, room temperature). The supernatant was discarded and the cell pellets resuspended in a known volume of IMDM+10% FBS. A cell count (3% glacial acetic acid) and viability assessment (trypan blue exclusion test) was performed for the bone marrow sample.
# (§3) On the day of the experiment, the compounds were dissolved in DMSO to a stock concentration of 10 mM. Serial dilutions were prepared from the stock concentration to achieve concentrations of 2 and 0.4 mM. When added to the methylcellulose-based media at 1:1000 (v/v), the final test concentrations of 10, 2 and 0.4 μM were achieved. Additionally, 5-FU was evaluated at 1.0, 0.1 and 0.01 μg/mL.
# (§4) Clonogenic progenitors of the human erythroid (CFU-E and BFU-E) and myeloid (CFU-GM) lineages were set up in the methylcellulose-based media formulations described above. All compounds were added to the medium to give the final desired concentrations (10, 2 and 0.4 μM). 5-Fluorouracil (Sigma Aldrich) was used as a positive control for progenitor proliferation (inhibition of colony growth) and was introduced to the human bone marrow cultures at 1.0, 0.1, and 0.01 μg/mL. Solvent control cultures (containing no compound but 0.1% DMSO) as well as standard controls (containing no compound and no DMSO) were also initiated.
# (§5) Human myeloid and erythroid progenitor assays were initiated at 2.0×10^4 cells per culture. Following 14 days in culture, myeloid and erythroid colonies were assessed microscopically and scored by trained personnel. The colonies were divided into the following categories based on size and morphology: CFU-E, BFU-E, CFU-GM and CFU-GEMM.
# (§6) The mean±one standard deviation of three replicate cultures was calculated for progenitors of each category (CFU-E, BFU-E, etc.). Two-tailed t-tests were performed to assess if there was a difference in the number of colonies generated between solvent control and treated cultures. Due to the potential subjectivity of colony enumeration, a p value of less than 0.01 is deemed significant. To calculate the concentration of 50% inhibition of colony growth (IC50) for each compound, a dose response curve was generated plotting the log of the compound concentration versus the percentage of control colony growth using XLfit software (IDBS). The concentration of 50% inhibition of colony growth (IC50) was calculated based on the sigmoid curve fit using Dose-Response, One-Site Model formula: y=A+[(B−A)/(1+((C/x)^D))], where A=the initial value (baseline response), B=maximum response, C=center (drug concentration that provokes a response halfway between A and B) and D=slope of the curve at midpoint. Further, plots and additional dose response curves were generated using GraphPad Prism 7.0.
# (§7) Erythroid (CFU-E and BFU-E), myeloid (CFU-GM) and multi-potential (CFU-GEMM) colony enumeration was performed by trained personnel. The distribution of colony types as well as general colony and cellular morphology was analyzed. For statistical analysis colony numbers in compound treated cultures were compared to the solvent control cultures. […]
# [3] = tested on: human erythroid progenitors (CFU-E, BFU-E); assay: Erythroid CFU assay; format: cell-based; details: for activity at 10 µM: Bone marrow cell, 336 h, 14 days culture, human bone marrow cells, read-out: Erythroid % control @ 10 uM dose
# Description: as §1, §2, §3, §4, §5, §6, §7
SMILES,activity at 10 µM [2],activity at 10 µM [3],Brain Cmax @ 10 mpk [1],further results
"Nc1ccc(-c2ccc(F)cc2)nc1NC(=O)N1Cc2cncnc2C1 [Comparator 1, reference compound]",83.9%,47.1%,,"Brain Cmax @ 10 mpk (*scaled for comparison) ([1]; dosed 30 mg/kg PO, scaled to 10 mg/kg PO): 158* ng/g"
"Cn1cc2c(n1)CN(C(=O)Nc1nc(-c3ccc(F)cc3)ccc1N)C2 [Comparator 2, reference compound]",30.4%,15.7%,,
"Cc1cc2c(cn1)CN(C(=O)Nc1nc(-c3ccc(F)cc3)ccc1N)C2 [Comparator 3, reference compound]",66.1%,25.7%,,
"COCc1cc2c(cn1)CN(C(=O)Nc1nc(-c3ccc(F)cc3)ccc1N)C2 [Comparator 5, reference compound]",58.9%,22.9%,,
"COCCn1cc2c(n1)CN(C(=O)Nc1nc(-c3ccc(F)cc3)ccc1N)C2 [Comparator 6, reference compound]",39%,28%,,
"Nc1ccc(-c2cccs2)nc1NC(=O)N1Cc2cncnc2C1 [Comparator 6, reference compound]",,,100 ng/g,Projected free brain @ 10 mpk [1]: 0.103 µM
Nc1ccc(-c2ccc(F)cc2)nc1NC(=O)N1Cc2cn(C3COC3)nc2C1 [Compound 1],54%,37%,636 ng/g,
Cc1ncc2c(n1)CN(C(=O)Nc1nc(-c3ccc(F)s3)ccc1N)C2 [Compound 2],87%,40%,760 ng/g,
CCc1ncc2c(n1)CN(C(=O)Nc1nc(-c3cccs3)ccc1N)C2 [Compound 3],89.4%,46.6%,526 ng/g,
Cc1ncc(-c2ccc(N)c(NC(=O)N3Cc4cn(C)nc4C3)n2)s1 [Compound 4],96%,53%,324 ng/g,
"O=c1[nH]cc(F)c(=O)[nH]1 [Compound 5-FU, 5-Fluorouracil, reference compound]",,,,"inhibitory effects on colony growth (positive control for toxicity) ([3]; 1.0, 0.1 and 0.01 μg/mL, erythroid and myeloid assays): exactly as expected"
Cc1ncc(-c2ccc(N)c(NC(=O)N3Cc4cn(CC(F)F)nc4C3)n2)s1 [Compound 5],,,277 ng/g,
Cc1nc2c(n1C)CN(C(=O)Nc1nc(-c3ccc(F)cc3)ccc1N)C2 [Compound 7],,,102 ng/g,
CCc1cc2c(cn1)CN(C(=O)Nc1nc(-c3cccnc3)ccc1N)C2 [Compound 8],102%,98%,279 ng/g,
COCCn1cc2c(n1)CN(C(=O)Nc1nc(-c3ccc(F)cc3F)ccc1N)C2 [Compound 9],62.8%,40.4%,1533 ng/g and 1383 ng/g,
Cn1cc2c(n1)CN(C(=O)Nc1nc(-c3cccnc3)ccc1N)C2 [Compound 11],103%,94%,369 ng/g,Projected free brain @ 10 mpk [1]: 0.664 µM
Cc1cc2c(cn1)CN(C(=O)Nc1nc(-c3cccnc3)ccc1N)C2 [Compound 12],104%,93%,237 ng/g,
Cc1ncc2c(n1)CN(C(=O)Nc1nc(-c3ccc(F)cc3)ccc1N)C2 [Compound 14],112%,53%,633 ng/g,"brain Cmax exposure, fold higher than comparator 1 [1]: 4 fold; projected free brain concentration, fold higher than comparator 1 [1]: 4 fold"
CCc1ncc2c(n1)CN(C(=O)Nc1nc(-c3ccc(F)cc3)ccc1N)C2 [Compound 17],79.1%,59.6%,1241 ng/g,"brain Cmax exposure, fold higher than comparator 1 [1]: ~7 fold; projected free brain concentration, fold higher than comparator 1 [1]: 5 fold"
